Test results from PMC8396040, “Direct Synthesis of Polyaromatic Cyclophanes Containing Bis-Methylene-Interrupted Z-Double Bonds and Study of Their Antitumor Activity In Vitro” (International Journal of Molecular Sciences, 2021).
Converted amounts (≈) assume the structure as drawn.

Experiments:
HL-60 = assay: Cytotoxicity, flow cytofluorimetry (Guava ViaCount / 7-AAD); type: cell-based; settings: Homo sapiens, mean ± SEM, at least 3 independent experiments
Procedure: (§1) The cytotoxicity of the prepared compounds was studied using Jurkat, K562, U937, and HL-60 suspension tumor cells; conditionally normal Hek293 cells; and normal fibroblasts. The IC50 values were determined by flow cytofluorimetry with the Guava ViaCount reagent kit (Millipore, Bedford, MA, USA).
(§2) Cells (Jurkat, K562, U937, HL-60, HEK293, and normal fibroblasts) were purchased from HPA Culture Collections (Salisbury, UK) and cultured according to standard mammalian tissue culture protocols and the sterile technique. All cell lines used in the study were tested and shown to be free of mycoplasma and other […] contamination. HEK293 and fibroblast cell lines were cultured as monolayers and maintained in Dulbecco’s modified Eagle’s medium (DMEM, Gibco BRL, Waltham, MA, USA) supplemented with 10% fetal bovine serum and 1% penicillin-streptomycin solution at 37 °C in a humidified incubator under a 5% CO2 atmosphere.
(§3) Cells were maintained in RPMI 1640 (Jurkat, K562, U937, HL60) (Gibco, Waltham, MA, USA) supplemented with 4 mM glutamine, 10% FBS (Sigma, Burlington, MA, USA), and 100 units/ml penicillin–streptomycin (Sigma, Burlington, MA, USA). All types of cells were grown in an atmosphere of 5% CO2 at 37 °C. The cells were subcultured at 2–3-day intervals. Adherent cells (HEK293 and normal fibroblasts) were suspended using trypsin/EDTA and counted after they reached 80% confluency. Cells were then seeded in 24-well plates at 5 × 10^4 cells per well and incubated overnight. Jurkat, K562, U937, and HL60 cells were subcultured at 2-day intervals with a seeding density of 1 × 10^5 cells per 24-well plates in RPMI with 10% FBS.
(§4) Viability (live/dead) assessment was performed by staining cells with 7-AAD (7-Aminoactinomycin D) (Biolegend, Fell, Germany). After treatment, cells were harvested, washed 1–2 times with phosphate-buffered saline (PBS), and centrifuged at 400× g for 5 min. Cell pellets were resuspended in […] of flow cytometry staining buffer (PBS without Ca^2+ and Mg^2+, 2.5% FBS) and stained with 5 μL of 7-AAD staining solution for 15 min at room temperature in the dark. Samples were acquired on a NovoCyteTM 2000 FlowCytometry System (ACEA) equipped with a 488 nm argon laser. Detection of 7-AAD emission was collected through a 675/30 nm filter in FL4 channel.

Hek293 = assay: as above; type: cell-based; settings: Homo sapiens, mean ± SEM, at least 3 independent experiments
Procedure: as §1, §2, §3, §4

Jurkat = assay: as above; type: cell-based; settings: Homo sapiens, mean ± SEM, at least 3 independent experiments
Procedure: as §1, §2, §3, §4

K562 = assay: as above; type: cell-based; settings: Homo sapiens, mean ± SEM, at least 3 independent experiments
Procedure: as §1, §2, §3, §4

U937 = assay: as above; type: cell-based; settings: Homo sapiens, U-937; mean ± SEM, at least 3 independent experiments
Procedure: as §1, §2, §3, §4

normal fibroblasts = assay: as above; type: cell-based; settings: Fibroblast; mean ± SEM, at least 3 independent experiments; read-out: Fibrobl. (IC50)
Procedure: as §1, §2, §3, §4

Jurkat cells [1] = assay: Induction of apoptosis, Annexin V / 7AAD flow cytometry; type: cell-based; settings: 24 h; for apoptosis-inducing effect, dependence on dose: 0.1-0.3 µM
Procedure: We studied the new macrodiolides for the induction of apoptosis and for the effect on the cell cycle. For this purpose, we chose the Jurkat, K562, and U937 cell lines. Apoptosis was studied by flow cytofluorimetry using Annexin V and 7-aminoactinomycin D (7AAD) (Guava Nexin reagent (Millipore, Bedford, MA, USA)). After incubation, the cells were analyzed using a NovoCyte™ 2000 Flow Cytometry System (ACEA). Apoptotic cells are characterized by externalization of the phosphatidylserine (PS) phospholipid, which is normally located, in living cells, on the inner surface of the cell membrane. The phospholipid location on the outer membrane surface can be detected from early apoptosis up to complete cell degradation. […] The use of Annexin V in combination with 7AAD allows simultaneous discrimination between viable cells (V–/7AAD–), early apoptotic cells (V+/7AAD–), and late apoptotic or necrotic cells (V+/7AAD+).
Induction of apoptosis tests were carried out following the known procedure. Apoptosis was determined by flow cytometric analysis of Annexin V and 7-aminoactinomycin D staining. After treatment, cells during 24 h were harvested, washed 1–2 times with phosphate-buffered saline (PBS), and centrifuged at 400× g for 5 min. Cell pellets were resuspended in 200 μL of flow cytometry staining buffer (PBS without Ca^2+and Mg^2+, 2.5% FBS). Then, 200 μL of Guava Nexin reagent (Millipore, Bedford, MA, USA) were added to 5 × 10^5 cells in 200 μL, and the cells were incubated with the reagent for 20 min at room temperature in the dark. At the end of incubation, the cells were analyzed on a NovoCyteTM 2000 FlowCytometry System (ACEA, San Diego, CA, USA).

Jurkat cells [2] = assay: Mitochondrial damage, MitoSense Red / Annexin V-CF488A / 7-AAD (FlowCellect MitoDamage Kit); type: cell-based; settings: for percentage of Jurkat tumor cells with reduced Δψ: 4 h (Figure 4)
Text: The changes in the mitochondrial membrane potential (ΔΨ) in Jurkat cells induced by treatment with compounds 8a, 8b, and 8c were detected using the MitoSense Red, a fluorescent dye, which is mainly accumulated in mitochondria and responds to changes in the membrane potential. The viable whole-body cells induce a high fluorescence level of MitoSense Red, whereas cells with dissipated mitochondrial membrane potential cause much lower fluorescence of MitoSense Red or no fluorescence. Annexin V and 7AAD are two dyes commonly used to detect apoptotic cells. […] Thus, using three different dyes, MitoSense Red, Annexin V (CF488A), and 7-AAD, we analyzed the dissipation of the mitochondrial membrane potential and the related apoptosis in Jurkat tumor cells in response to the action of synthesized macrodiolides (Figure 4).
Mitochondrial damage tests were carried out following the known procedure. Cytometric assay (Millipore’s FlowCellect™MitoDamage Kit, Merck, Burlington, MA, USA) that allowed multiparametric evaluation of three cell health markers: change in mitochondrial potential (early apoptosis and cellular stress), phosphatidylserine expression on the cell surface […], and membrane permeabilization (cell death), was used.

Jurkat cells [3] = assay: Cell cycle analysis (Guava Cell Cycle Reagent); type: cell-based; settings: IC50 concentrations (8a 0.15 µM, 8b 0.16 µM, 8c 0.13 µM), 24 h
Procedure: Cell cycle analysis was carried out following the known procedure. Guava Cell Cycle Reagent (Millipore, Burlington, MA, USA) was used. Samples were analyzed on a NovoCyteTM 2000 FlowCytometry System (ACEA, San Diego, CA, USA).

[4] = test system: HT-29 human colon cancer cells; set-up: method as in PMID 12530851, PMID 16551088; settings: HT-29 cell line; cited from earlier work

SMILES | IC50 (HL-60) [nM] | IC50 (Hek293) [nM] | IC50 (Jurkat) [nM] | IC50 (K562) [nM] | IC50 (U937) [nM] | IC50 (normal fibroblasts) [nM] | apoptosis-inducing effect, dependence on dose (Jurkat cells [1]) | action on mitochondria (reduction of mitochondrial potential) compared with staurosporine (Jurkat cells [2]) | percentage of Jurkat tumor cells with reduced Δψ (Jurkat cells [2]; 0.15 µM) [%] | Freq G1 (percentage of cells in G0/G1 phase) (Jurkat cells [3]) [%] | An+,PI+ cells (late apoptosis) (Jurkat cells [1]; 0.1 µM) [%] | An+,PI+ cells (late apoptosis) (Jurkat cells [1]; 0.3 µM) [%] | PI+ cells (necrotic) (Jurkat cells [1]; 0.3 µM) [%] | percentage of apoptotic cells (early apoptosis and late apoptosis) (Jurkat cells [2]; 0.15 µM, 4 h) [%] | Freq Sub-G1 (cells in the sub-G0-G1 range) (Jurkat cells [3]) [%] | IC50 [4] [µg/mL]
O=C1OCCC/C=C\CC/C=C\CCCOC(=O)c2ccccc2OCc2ccccc2COc2ccccc21 [6a, (10Z,14Z)-7,8,9,12,13,16,17,18,26,31-decahydro-5H,20H-tribenzo[c,g,k][1,5,10,14]tetraoxacyclohexacosine-5,20-dione] | 430 ± 30 | 1940 ± 170 | 390 ± 30 | 610 ± 50 | 490 ± 40 | 4710 ± 420 | – | – | – | – | – | – | – | – | – | –
O=C1OCCC/C=C\CC/C=C\CCCOC(=O)c2ccccc2OCc2cccc(c2)COc2ccccc21 [6b, (13Z,17Z)-2,6,9,22-tetraoxa-1,7(1,2),4(1,3)-tribenzenacyclotricosaphane-13,17-diene-8,23-dione] | 440 ± 40 | 2180 ± 210 | 480 ± 50 | 640 ± 60 | 510 ± 50 | 5090 ± 470 | – | – | – | – | – | – | – | – | – | –
O=C1OCCC/C=C\CC/C=C\CCCOC(=O)c2ccccc2OCc2ccc(cc2)COc2ccccc21 [6c, (13Z,17Z)-2,6,9,22-tetraoxa-1,7(1,2),4(1,4)-tribenzenacyclotricosaphane-13,17-diene-8,23-dione] | 400 ± 30 | 1760 ± 160 | 340 ± 30 | 580 ± 50 | 460 ± 40 | 4220 ± 390 | – | – | – | – | – | – | – | – | – | –
O=C1OCCCC/C=C\CC/C=C\CCCCOC(=O)c2ccccc2OCc2ccccc2COc2ccccc21 [7a, (11Z,15Z)-7,8,9,10,13,14,17,18,19,20,28,33-dodecahydro-5H,22H-tribenzo[c,g,k][1,5,10,14]tetraoxacyclooctacosine-5,22-dione] | 940 ± 80 | 3860 ± 340 | 490 ± 40 | 760 ± 80 | 560 ± 60 | 7120 ± 590 | – | – | – | – | – | – | – | – | – | –
O=C1OCCCC/C=C\CC/C=C\CCCCOC(=O)c2ccccc2OCc2cccc(c2)COc2ccccc21 [7b, (14Z,18Z)-2,6,9,24-tetraoxa-1,7(1,2),4(1,3)-tribenzenacyclopentacosaphane-14,18-diene-8,25-dione] | 970 ± 90 | 4210 ± 390 | 940 ± 80 | 1490 ± 110 | 1170 ± 90 | 7690 ± 720 | – | – | – | – | – | – | – | – | – | –
O=C1OCCCC/C=C\CC/C=C\CCCCOC(=O)c2ccccc2OCc2ccc(cc2)COc2ccccc21 [7c, (14Z,18Z)-2,6,9,24-tetraoxa-1,7(1,2),4(1,4)-tribenzenacyclopentacosaphane-14,18-diene-8,25-dione] | 890 ± 90 | 3470 ± 310 | 350 ± 30 | 590 ± 40 | 390 ± 30 | 6550 ± 610 | – | – | – | – | – | – | – | – | – | –
O=C1OCCCCCC/C=C\CC/C=C\CCCCCCOC(=O)c2ccccc2OCc2ccccc2COc2ccccc21 [8a, (13Z,17Z)-7,8,9,10,11,12,15,16,19,20,21,22,23,24,32,37-hexadecahydro-5H,26H-tribenzo[c,g,k][1,5,10,14]tetraoxacyclodotriacontine-5,26-dione] | 220 ± 20 | 1440 ± 110 | 150 ± 20 | 370 ± 20 | 300 ± 20 | 3370 ± 290 | dose dependent | comparable with the action of staurosporine | 19.36 | 63.04 | – | – | – | – | – | –
O=C1OCCCCCC/C=C\CC/C=C\CCCCCCOC(=O)c2ccccc2OCc2cccc(c2)COc2ccccc21 [8b, (16Z,20Z)-2,6,9,28-tetraoxa-1,7(1,2),4(1,3)-tribenzenacyclononacosaphane-16,20-diene-8,29-dione] | 240 ± 20 | 1680 ± 140 | 160 ± 10 | 390 ± 40 | 310 ± 30 | 3480 ± 320 | dose dependent | comparable with the action of staurosporine | 41.71 | 59.16 | 64.36 | 58.0 | 26.49 | 58.15 | 4.13 | –
O=C1OCCCCCC/C=C\CC/C=C\CCCCCCOC(=O)c2ccccc2OCc2ccc(cc2)COc2ccccc21 [8c, (16Z,20Z)-2,6,9,28-tetraoxa-1,7(1,2),4(1,4)-tribenzenacyclononacosaphane-16,20-diene-8,29-dione] | 190 ± 10 | 1210 ± 90 | 130 ± 10 | 340 ± 30 | 270 ± 20 | 3190 ± 280 | dose dependent | – | 26.26 | 55.93 | – | – | – | – | – | –
Oc1cccc(C23C=C4CN(CCc5ccc(c(O)c5)-c5ccc(O)cc54)C2Cc2cccc(O)c23)c1 (centres unmarked) [Haouamine A] | – | – | – | – | – | – | – | – | – | – | – | – | – | – | – | 0.1 (≈ 0.204 µM)
